From patent US8957093B2, “N-biphenylmethylindole modulators of PPARG” (The Scripps Research Institute, priority 2011, dated 2015) come the findings set out here.

Where two headings read alike, the source gives them in different places.

Experiment [1] addresses Gal-4-PPAR (human PPAR LBD fused to GAL4 DNA-binding domain) (Homo sapiens (Human), UniProt P37231). Nature of the experiment: GAL4-PPARG LBD / UAS-luciferase transactivation assay in HEK 293T cells. Type of experiment: cell-based.
Another experiment concerns the target GST-PPARG-LBD (Homo sapiens (Human), UniProt P37231). Briefly: Lanthascreen PPARG competitive binding assay (Invitrogen, TR-FRET). Particulars: NA = not active, inc = incomplete curve, read-out: IC50 (nM) Lantha. The gist of the method:
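TR-FRET competitive binding of GST-PPARG-LBD with 5 nM Tb-GST-antibody and 5 nM Fluormone Pan-PPAR Green tracer, in TR-FRET buffer C. Compound serially diluted from 10 μM, 2 h dark incubation, in triplicate. Readout is 520/490 nm emission ratio (340 nm excitation), expressed as fold change over 2% DMSO control.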
A general note: Time-resolved FRET reads energy transfer from a long-lived donor to a nearby acceptor.

Setting [2] is: GAL4 transactivation, HEK 293T cells; NA = not active; read-out: EC50 (nM) GAL4.
Setting [3] is: HEK-293T, 18 h; read-out: % transactivation at 10 μM (GAL4).
Setting [4] is: Lanthascreen competitive binding.
Setting [5] is: HEK-293T, 18 h, read-out: % transactivation at 10 μM (GAL4).
[6] abbreviates: GAL4 transactivation; read-out: EC50 (nM) GAL4.
[7] abbreviates: Lanthascreen PPARG competitive binding.

Gal-4-PPAR (human PPAR LBD fused to GAL4 DNA-binding domain), sequence (P37231 238-503): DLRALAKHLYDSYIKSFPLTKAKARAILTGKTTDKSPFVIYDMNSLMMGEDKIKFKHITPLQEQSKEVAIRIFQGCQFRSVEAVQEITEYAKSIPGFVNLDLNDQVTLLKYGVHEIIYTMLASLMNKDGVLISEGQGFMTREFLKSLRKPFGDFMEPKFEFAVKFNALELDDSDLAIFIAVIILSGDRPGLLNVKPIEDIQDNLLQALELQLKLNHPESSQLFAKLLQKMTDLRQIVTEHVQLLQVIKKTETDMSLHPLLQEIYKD
GST-PPARG-LBD, sequence (P37231 238-503): as above

The term EC50 denotes the concentration at which the effect is half-maximal. As usually defined, the IC50 is the concentration that gives 50% inhibition. On to `COc1ccc(F)cc1[C@@H](C)NC(=O)c1ccc2c(c1)c(C)c(C)n2Cc1ccc(-c2ccccc2C(=O)O)cc1` [Example 205, (R)-4′-((5-((1-(5-fluoro-2-methoxyphenyl)ethyl)carbamoyl)-2,3-dimethyl-1H-indol-1-yl)methyl)-[1,1′-biphenyl]-2-carboxylic acid], for which, in experiment [1] (setting [2]), the EC50 worked out at 637 nM. Moreover, the activation at 10 µM in experiment [1] (setting [3]) turned out to be 20%. The IC50 on GST-PPARG-LBD (setting [4]) was 5 nM.

As to `CC[C@H](NC(=O)c1ccc2c(ccn2Cc2ccccc2-c2cccc(C(=O)O)c2)c1)c1ccccc1` [Example 191, (S)-2′-((5-((1-phenylpropyl)carbamoyl)-1H-indol-1-yl)methyl)-[1,1′-biphenyl]-3-carboxylic acid], the EC50 in experiment [1] (setting [2]) is 1000 nM. In experiment [1] (setting [3]), the activation at 10 µM was 20%. Also, the concentration for half-maximal inhibition (IC50) on GST-PPARG-LBD (setting [4]) worked out at 80 nM.

As to `Cc1c(C)n(Cc2ccc(-c3ccccc3C(=O)O)cc2)c2ccc(C(=O)N[C@@H](C)c3cccc(F)c3Cl)cc12` [Example 170, (S)-4′-((5-((1-(2-chloro-3-fluorophenyl)ethyl)carbamoyl)-2,3-dimethyl-1H-indol-1-yl)methyl)-[1,1′-biphenyl]-2-carboxylic acid], in experiment [1] (setting [2]), the EC50 is 114 nM. The activation at 10 µM in experiment [1] (setting [5]) is 50%. Also, the IC50 on GST-PPARG-LBD (setting [4]) came out at 4 nM.

`Cc1c(C)n(Cc2ccc(-c3ccccc3-c3nn[nH]n3)cc2)c2ccc(C(=O)N[C@@H](C)c3cccc(C(C)C)c3)cc12` [Example 243, (S)-1-((2′-(2H-tetrazol-5-yl)-[1,1′-biphenyl]-4-yl)methyl)-N-(1-(3-isopropylphenyl)ethyl)-2,3-dimethyl-1H-indole-5-carboxamide] showed an EC50 in experiment [1] of 1600 nM. Also, in experiment [1] (setting [3]), the activation at 10 µM worked out at 10%. Moreover, the IC50 at GST-PPARG-LBD (setting [4]) amounted to 22 nM.

As for `Cc1c(C)n(Cc2ccc(-c3ccccc3C(=O)O)cc2)c2ccc(C(=O)N[C@@H](C)c3ccc4c(c3)CCO4)cc12` [Example 218, (S)-4′-((5-((1-(2,3-dihydrobenzofuran-5-yl)ethyl)carbamoyl)-2,3-dimethyl-1H-indol-1-yl)methyl)-[1,1′-biphenyl]-2-carboxylic acid], the EC50 in experiment [1] (setting [2]) stood at 2550 nM. Moreover, in experiment [1] (setting [3]), the activation at 10 µM was found to be 45%. Besides, at GST-PPARG-LBD (setting [4]), the IC50 is 223 nM.

For `Cc1c(C)n(Cc2ccc(-c3ccccc3C(=O)O)cc2)c2ccc(C(=O)N[C@@H](C)c3ccc(C(F)(F)F)cc3)cc12` [Example 154, (S)-4′-((2,3-dimethyl-5-((1-(4-(trifluoromethyl)phenyl)ethyl)carbamoyl)-1H-indol-1-yl)methyl)-[1,1′-biphenyl]-2-carboxylic acid], the EC50 in experiment [1] (setting [2]) was found to be 522 nM. Further, the activation at 10 µM in experiment [1] (setting [3]) came out at 5%. In addition, the IC50 on GST-PPARG-LBD (setting [4]) was 61 nM.

As to `Cc1c(C)n(Cc2ccc(-c3ccccc3C(=O)O)cc2)c2ccc(C(=O)N[C@@H](C)[C@@H]3CCCN3C(=O)OCc3ccccc3)cc12` [Example 237, 4′-((5-(((S)-1-((S)-1-((benzyloxy)carbonyl)pyrrolidin-2-yl)ethyl)carbamoyl)-2,3-dimethyl-1H-indol-1-yl)methyl)-[1,1′-biphenyl]-2-carboxylic acid], the EC50 in experiment [1] (setting [2]) turned out to be 417 nM. The activation at 10 µM in experiment [1] (setting [3]) was 30%. The IC50 on GST-PPARG-LBD (setting [4]) was determined as 118 nM.

On to `Cc1c(C)n(Cc2ccc(-c3ccccc3C(=O)O)cc2)c2ccc(C(=O)N[C@@H](C)c3ccc(Cl)c(Cl)c3)cc12` [Example 220, (S)-4′-((5-((1-(3,4-dichlorophenyl)ethyl)carbamoyl)-2,3-dimethyl-1H-indol-1-yl)methyl)-[1,1′-biphenyl]-2-carboxylic acid], for which the EC50 in experiment [1] (setting [2]) stood at 142 nM. Moreover, the activation at 10 µM in experiment [1] (setting [3]) was determined as 30%. Also, the IC50 on GST-PPARG-LBD (setting [4]) was 10 nM.

Take `Cc1c(C)n(Cc2ccc(-c3ccccc3C(=O)O)cc2)c2ccc(C(=O)N[C@@H](C)c3ccccc3C(F)(F)F)cc12` [Example 208, (S)-4′-((2,3-dimethyl-5-((1-(2-(trifluoromethyl)phenyl)ethyl)carbamoyl)-1H-indol-1-yl)methyl)-[1,1′-biphenyl]-2-carboxylic acid]: in experiment [1] (setting [2]), the EC50 was found to be 369 nM. For the same compound, the activation at 10 µM in experiment [1] (setting [3]) came to 20%. The IC50 on GST-PPARG-LBD (setting [4]) was determined as 22 nM.

On to `Cc1c(C)n(Cc2ccc(-c3ccccc3C(=O)O)cc2)c2ccc(C(=O)NC(C)c3cncc(Br)c3)cc12` (stereo not drawn) [Example 275, 4′-((5-(1-(5-bromopyridin-3-yl)ethylcarbamoyl)-2,3-dimethyl-1H-indol-1-yl)methyl)biphenyl-2-carboxylic acid], for which, in experiment [1] (setting [6]), the EC50 was found to be 572 nM. For the same compound, in experiment [1] (setting [3]), the activation at 10 µM was 35%. The IC50 at GST-PPARG-LBD (setting [7]) was 8 nM.

With `Cc1c(C)n(Cc2ccc(-c3ccccc3C(=O)O)cc2)c2ccc(C(=O)N[C@@H](C)c3c(F)cccc3C(F)(F)F)cc12` [Example 300, (S)-4′-((5-((1-(2-Fluoro-6-(trifluoromethyl)phenyl)ethyl)carbamoyl)-2,3-dimethyl-1H-indol-1-yl)methyl)-[1,1′-biphenyl]-2-carboxylic acid], the EC50 in experiment [1] (setting [6]) worked out at 167 nM. Besides, the activation at 10 µM in experiment [1] (setting [3]) was 15%. In addition, the IC50 on GST-PPARG-LBD (setting [7]) was determined as 9 nM.

Take `Cc1c(C)n(Cc2ccc(-c3ccccc3C(=O)O)cc2)c2ccc(C(=O)N[C@@H](C)c3ccc(C(F)(F)F)nc3)cc12` [Example 217, (S)-4′-((2,3-dimethyl-5-((1-(6-(trifluoromethyl)pyridin-3-yl)ethyl)carbamoyl)-1H-indol-1-yl)methyl)-[1,1′-biphenyl]-2-carboxylic acid]: the EC50 in experiment [1] (setting [2]) turned out to be 2800 nM. The activation at 10 µM in experiment [1] (setting [3]) turned out to be 15%. The IC50 at GST-PPARG-LBD (setting [4]) was determined as 230 nM.

Take `Cc1c(C)n(Cc2ccc(-c3ccccc3C(=O)NS(C)(=O)=O)cc2)c2ccc(C(=O)N[C@@H](C)c3cccc(C(C)C)c3)cc12` [Example 314, (S)—N-(1-(3-Isopropylphenyl)ethyl)-2,3-dimethyl-1-((2′-((methylsulfonyl)carbamoyl)-[1,1′-biphenyl]-4-yl)methyl)-1H-indole-5-carboxamide]: the EC50 in experiment [1] (setting [6]) is 1650 nM. The activation at 10 µM in experiment [1] (setting [3]) was found to be 5%. The IC50 at GST-PPARG-LBD (setting [7]) came to 285 nM.

Regarding `Cc1c(C)n(Cc2ccc(-c3ccccc3C(=O)O)cc2)c2ccc(C(=O)N[C@@H](C)c3ccc(C4CC4)nc3)cc12` [Example 263, (S)-4′-((5-((1-(6-cyclopropylpyridin-3-yl)ethyl)carbamoyl)-2,3-dimethyl-1H-indol-1-yl)methyl)-[1,1′-biphenyl]-2-carboxylic acid], the EC50 in experiment [1] (setting [2]) is 3760 nM. In experiment [1] (setting [3]), the activation at 10 µM is 20%. Also, the IC50 at GST-PPARG-LBD (setting [4]) came out at 59 nM.

For `Cc1c(C)n(Cc2ccc(-c3ccccc3C(=O)O)cc2)c2ccc(C(=O)N[C@@H](C)c3ccc(OC(F)(F)F)cc3)cc12` [Example 153, (S)-4′-((2,3-dimethyl-5-((1-(4-(trifluoromethoxy)phenyl)ethyl)carbamoyl)-1H-indol-1-yl)methyl)-[1,1′-biphenyl]-2-carboxylic acid], the EC50 in experiment [1] (setting [2]) worked out at 4160 nM. In addition, the activation at 10 µM in experiment [1] (setting [3]) is 25%. Further, the IC50 at GST-PPARG-LBD (setting [4]) was 28 nM.

On to `Cc1c(C)n(Cc2ccc(-c3ccccc3C(=O)O)cc2)c2ccc(C(=O)N[C@H](C)c3ccncc3)cc12` [Example 169, (R)-4′-((2,3-dimethyl-5-((1-(pyridin-4-yl)ethyl)carbamoyl)-1H-indol-1-yl)methyl)-[1,1′-biphenyl]-2-carboxylic acid], for which the EC50 in experiment [1] (setting [2]) was found to be 608 nM. For the same compound, in experiment [1] (setting [3]), the activation at 10 µM came out at 20%. The concentration for half-maximal inhibition (IC50) at GST-PPARG-LBD (setting [4]) is 11 nM.

On to `Cc1c(C)n(Cc2ccc(-c3ccccc3C(=O)O)cc2)c2ccc(C(=O)N[C@@H](C)c3cc(F)ccc3C(F)(F)F)cc12` [Example 241, (S)-4′-((5-((1-(5-fluoro-2-(trifluoromethyl)phenyl)ethyl)carbamoyl)-2,3-dimethyl-1H-indol-1-yl)methyl)-[1,1′-biphenyl]-2-carboxylic acid], for which the EC50 in experiment [1] (setting [2]) is 453 nM. Also, in experiment [1] (setting [5]), the activation at 10 µM was 20%. For the same compound, the IC50 at GST-PPARG-LBD (setting [4]) was 57 nM.

With `Cc1c(C)n(Cc2ccc(-c3ccccc3C(=O)O)cc2)c2ccc(C(=O)N[C@@H](C)c3cc(Cl)cc(Cl)c3)cc12` [Example 219, (S)-4′-((5-((1-(3,5-dichlorophenyl)ethyl)carbamoyl)-2,3-dimethyl-1H-indol-1-yl)methyl)-[1,1′-biphenyl]-2-carboxylic acid], in experiment [1] (setting [2]), the EC50 came out at 155 nM. Besides, the activation at 10 µM in experiment [1] (setting [3]) was determined as 30%. Moreover, on GST-PPARG-LBD (setting [4]), the IC50 is 15 nM.

With `CCc1ccc([C@H](C)NC(=O)c2ccc3c(c2)c(C)c(C)n3Cc2ccc(-c3ccccc3C(=O)O)cc2)cc1` [Example 225, (S)-4′-((5-((1-(4-ethylphenyl)ethyl)carbamoyl)-2,3-dimethyl-1H-indol-1-yl)methyl)-[1,1′-biphenyl]-2-carboxylic acid], the EC50 in experiment [1] (setting [2]) came out at 1130 nM. For the same compound, the activation at 10 µM in experiment [1] (setting [3]) is 20%. The IC50 on GST-PPARG-LBD (setting [4]) came to 43 nM.

Regarding `Cc1c(C)n(Cc2ccc(-c3ccccc3C(=O)O)cc2)c2ccc(C(=O)NCc3ccc(Cl)cc3C(F)(F)F)cc12` [Example 165, 4′-((5-((4-chloro-2-(trifluoromethyl)benzyl)carbamoyl)-2,3-dimethyl-1H-indol-1-yl)methyl)-[1,1′-biphenyl]-2-carboxylic acid], in experiment [1] (setting [2]), the EC50 is 507 nM. Besides, in experiment [1] (setting [3]), the activation at 10 µM stood at 15%. The IC50 at GST-PPARG-LBD (setting [4]) turned out to be 2 nM.

As to `Cc1c(C)n(Cc2ccc(-c3ccccc3C(=O)O)cc2)c2ccc(C(=O)N[C@@H](C)c3ccnc4ccccc34)cc12` [Example 149, (S)-4′-((2,3-dimethyl-5-((1-(quinolin-4-yl)ethyl)carbamoyl)-1H-indol-1-yl)methyl)-[1,1′-biphenyl]-2-carboxylic acid], in experiment [1] (setting [2]), the EC50 turned out to be 1680 nM. For the same compound, the activation at 10 µM in experiment [1] (setting [3]) amounted to 15%. Moreover, the IC50 at GST-PPARG-LBD (setting [4]) turned out to be 6 nM.
